Test results reported in patent US20050197350A1, “Novel quinoline, tetrahydroquinazoline, and pyrimidine derivatives and methods of treatment related to the use thereof” (TAISHO PHARMACEUTICAL CO., LTD., priority 2003, published 2005).

system: MCH receptors; experiment: MCH receptor activity class (method not given); conditions: activity class 1-3: percent of control at 10^-7 M or IC50

SMILES	class
CN(C)c1ccnc(N[C@H]2CC[C@@H](NCCc3cccc(Cl)c3)CC2)n1 [compound 1514]	3 (Class 3 The value of percent of control at 10^−7 M was more than 60% or the value of IC50 was more than 200 nM.)
CN(C)c1ccnc(N[C@H]2CC[C@@H](NCCOc3ccccc3Cl)CC2)n1 [compound 1515]	3 (Class 3 The value of percent of control at 10^−7 M was more than 60% or the value of IC50 was more than 200 nM.)
COC(CNC1CCC(Nc2nccc(N(C)C)n2)CC1)c1ccccc1 (stereo not shown) [compound 1517]	3 (Class 3 The value of percent of control at 10^−7 M was more than 60% or the value of IC50 was more than 200 nM.)
CN(C)c1ccnc(N[C@H]2CC[C@@H](NCCOc3ccc(Br)cc3)CC2)n1 [compound 1518]	3 (Class 3 The value of percent of control at 10^−7 M was more than 60% or the value of IC50 was more than 200 nM.)
Cc1c(C)c(C)c(CNC2CCC(Nc3nccc(N(C)C)n3)CC2)c(C)c1C (stereo not shown) [compound 1519]	3 (Class 3 The value of percent of control at 10^−7 M was more than 60% or the value of IC50 was more than 200 nM.)
CCOc1cccc(CN[C@H]2CC[C@@H](Nc3nccc(N(C)C)n3)CC2)c1 [compound 1520]	3 (Class 3 The value of percent of control at 10^−7 M was more than 60% or the value of IC50 was more than 200 nM.)
CN(C)c1ccnc(N[C@H]2CC[C@@H](NC[C@@H](COCc3ccccc3)OCc3ccccc3)CC2)n1 [compound 1521]	3 (Class 3 The value of percent of control at 10^−7 M was more than 60% or the value of IC50 was more than 200 nM.)
COc1cc2ccccc2cc1CN[C@H]1CC[C@@H](Nc2nccc(N(C)C)n2)CC1 [compound 1522]	3 (Class 3 The value of percent of control at 10^−7 M was more than 60% or the value of IC50 was more than 200 nM.)
Cc1cccc(N(CCC#N)CCN[C@H]2CC[C@@H](Nc3nccc(N(C)C)n3)CC2)c1 [compound 1523]	3 (Class 3 The value of percent of control at 10^−7 M was more than 60% or the value of IC50 was more than 200 nM.)
CN(C)c1ccnc(N[C@H]2CC[C@@H](NCCN(CCC#N)c3ccccc3)CC2)n1 [compound 1524]	3 (Class 3 The value of percent of control at 10^−7 M was more than 60% or the value of IC50 was more than 200 nM.)
COc1ccc(CCCCNC[C@H]2CC[C@@H](Nc3nccc(N(C)C)n3)CC2)cc1 [compound 1525]	3 (Class 3 The value of percent of control at 10^−7 M was more than 60% or the value of IC50 was more than 200 nM.)

same assay, conditions: class by percent of control at 10^-7 M or IC50

SMILES	class
CN(C)c1cc(N[C@H]2CC[C@@H](CNCCCCc3ccc([N+](=O)[O-])cc3)CC2)nc2ccccc12 [compound 1480]	3 (Class 3 The value of percent of control at 10^−7 M was more than 60% or the value of IC50 was more than 200 nM.)
CN(C)c1nc(N[C@H]2CC[C@@H](NCCc3ccc(Br)cc3)CC2)nc2c1CCCC2 [compound 1481]	3 (Class 3 The value of percent of control at 10^−7 M was more than 60% or the value of IC50 was more than 200 nM.)
CN(C)c1nc(N[C@H]2CC[C@@H](NCCc3cccc(Cl)c3)CC2)nc2c1CCCC2 [compound 1482]	3 (Class 3 The value of percent of control at 10^−7 M was more than 60% or the value of IC50 was more than 200 nM.)
COC(CN[C@H]1CC[C@@H](Nc2nc3c(c(N(C)C)n2)CCCC3)CC1)c1ccccc1 (stereo partly shown) [compound 1483]	3 (Class 3 The value of percent of control at 10^−7 M was more than 60% or the value of IC50 was more than 200 nM.)
COC(CNC1CCC(Nc2nc3c(c(N(C)C)n2)CCCC3)CC1)c1ccccc1 (stereo not shown) [compound 1484]	3 (Class 3 The value of percent of control at 10^−7 M was more than 60% or the value of IC50 was more than 200 nM.)
Cc1c(C)c(C)c(CNC2CCC(Nc3nc4c(c(N(C)C)n3)CCCC4)CC2)c(C)c1C (stereo not shown) [compound 1485]	2 (Class 2: The value of percent of control at 10^−7 M was from 40% to 60% or the value of IC′50 was from 50 nM to 200 nM.)
CCOc1cccc(CN[C@H]2CC[C@@H](Nc3nc4c(c(N(C)C)n3)CCCC4)CC2)c1 [compound 1486]	3 (Class 3 The value of percent of control at 10^−7 M was more than 60% or the value of IC50 was more than 200 nM.)
CN(C)c1nc(N[C@H]2CC[C@@H](NC[C@@H](COCc3ccccc3)OCc3ccccc3)CC2)nc2c1CCCC2 [compound 1487]	3 (Class 3 The value of percent of control at 10^−7 M was more than 60% or the value of IC50 was more than 200 nM.)
COc1cc2ccccc2cc1CN[C@H]1CC[C@@H](Nc2nc3c(c(N(C)C)n2)CCCC3)CC1 [compound 1488]	3 (Class 3 The value of percent of control at 10^−7 M was more than 60% or the value of IC50 was more than 200 nM.)
Cc1cccc(N(CCC#N)CCN[C@H]2CC[C@@H](Nc3nc4c(c(N(C)C)n3)CCCC4)CC2)c1 [compound 1489]	2 (Class 2: The value of percent of control at 10^−7 M was from 40% to 60% or the value of IC′50 was from 50 nM to 200 nM.)
CN(C)c1nc(N[C@H]2CC[C@@H](NCCN(CCC#N)c3ccccc3)CC2)nc2c1CCCC2 [compound 1490]	1 (Class 1: The value of percent of control at 10^−7 M was less than 40% or the value of IC50 was less than 50 nM.)
Cc1ccc(S(=O)(=O)N[C@H](CN[C@H]2CC[C@@H](Nc3nc4c(c(N(C)C)n3)CCCC4)CC2)Cc2ccccc2)cc1 [compound 1491]	1 (Class 1: The value of percent of control at 10^−7 M was less than 40% or the value of IC50 was less than 50 nM.)
COc1cc(CCN[C@H]2CC[C@@H](Nc3nc4c(c(N(C)C)n3)CCCC4)CC2)cc(OC)c1 [compound 1493]	2 (Class 2: The value of percent of control at 10^−7 M was from 40% to 60% or the value of IC′50 was from 50 nM to 200 nM.)
CN(C)c1nc(N[C@H]2CC[C@@H](NCCc3c(-c4ccccc4)[nH]c4ccccc34)CC2)nc2c1CCCC2 [compound 1494]	3 (Class 3 The value of percent of control at 10^−7 M was more than 60% or the value of IC50 was more than 200 nM.)
CN(C)c1nc(N[C@H]2CC[C@@H](NCC(c3ccc(Cl)cc3)c3ccc(Cl)cc3)CC2)nc2c1CCCC2 [compound 1495]	3 (Class 3 The value of percent of control at 10^−7 M was more than 60% or the value of IC50 was more than 200 nM.)
CN(C)c1nc(N[C@H]2CC[C@@H](NCC3CN(C(c4ccccc4)c4ccccc4)C3)CC2)nc2c1CCCC2 [compound 1497]	1 (Class 1: The value of percent of control at 10^−7 M was less than 40% or the value of IC50 was less than 50 nM.)

SMILES	class
CN(C)c1nc(N[C@H]2CC[C@@H](CNCCc3ccc(Br)cc3)CC2)nc2c1CCCC2 [compound 1498]	3 (Class 3 The value of percent of control at 10^−7 M was more than 60% or the value of IC50 was more than 200 nM.)
COc1ccc(CCCCNC[C@H]2CC[C@@H](Nc3nc4c(c(N(C)C)n3)CCCC4)CC2)cc1 [compound 1499]	3 (Class 3 The value of percent of control at 10^−7 M was more than 60% or the value of IC50 was more than 200 nM.)
CN(C)c1nc(N[C@H]2CC[C@@H](CNCCCCCCc3ccccc3)CC2)nc2c1CCCC2 [compound 1500]	3 (Class 3 The value of percent of control at 10^−7 M was more than 60% or the value of IC50 was more than 200 nM.)
Cc1cc(C)c(CCNC[C@H]2CC[C@@H](Nc3nc4c(c(N(C)C)n3)CCCC4)CC2)c(C)c1 [compound 1501]	3 (Class 3 The value of percent of control at 10^−7 M was more than 60% or the value of IC50 was more than 200 nM.)
CN(C)c1nc(N[C@H]2CC[C@@H](CNCCCCCCCCc3ccccc3)CC2)nc2c1CCCC2 [compound 1502]	3 (Class 3 The value of percent of control at 10^−7 M was more than 60% or the value of IC50 was more than 200 nM.)
CN(C)c1nc(N[C@H]2CC[C@@H](CNCCc3ccc(C(C)(C)C)cc3)CC2)nc2c1CCCC2 [compound 1503]	3 (Class 3 The value of percent of control at 10^−7 M was more than 60% or the value of IC50 was more than 200 nM.)
COc1ccccc1CCNC[C@H]1CC[C@@H](Nc2nc3c(c(N(C)C)n2)CCCC3)CC1 [compound 1504]	3 (Class 3 The value of percent of control at 10^−7 M was more than 60% or the value of IC50 was more than 200 nM.)
CN(C)c1nc(N[C@H]2CC[C@@H](CNCCCOc3ccccc3)CC2)nc2c1CCCC2 [compound 1505]	3 (Class 3 The value of percent of control at 10^−7 M was more than 60% or the value of IC50 was more than 200 nM.)
COc1ccc(Cl)cc1CNC[C@H]1CC[C@@H](Nc2nc3c(c(N(C)C)n2)CCCC3)CC1 [compound 1506]	3 (Class 3 The value of percent of control at 10^−7 M was more than 60% or the value of IC50 was more than 200 nM.)
COc1cc(Cl)ccc1CNC[C@H]1CC[C@@H](Nc2nc3c(c(N(C)C)n2)CCCC3)CC1 [compound 1507]	3 (Class 3 The value of percent of control at 10^−7 M was more than 60% or the value of IC50 was more than 200 nM.)
Cc1ccc(CNC[C@H]2CC[C@@H](Nc3nc4c(c(N(C)C)n3)CCCC4)CC2)cc1I [compound 1508]	3 (Class 3 The value of percent of control at 10^−7 M was more than 60% or the value of IC50 was more than 200 nM.)
C[C@@H](CNC[C@H]1CC[C@@H](Nc2nc3c(c(N(C)C)n2)CCCC3)CC1)N(Cc1ccccc1)Cc1ccccc1 [compound 1509]	3 (Class 3 The value of percent of control at 10^−7 M was more than 60% or the value of IC50 was more than 200 nM.)
CCCc1c(CNC[C@H]2CC[C@@H](Nc3nc4c(c(N(C)C)n3)CCCC4)CC2)cnn1-c1ccccc1 [compound 1510]	1 (Class 1: The value of percent of control at 10^−7 M was less than 40% or the value of IC50 was less than 50 nM.)
CCCc1c(CNC[C@H]2CC[C@@H](Nc3nc4c(c(N(C)C)n3)CCCC4)CC2)cnn1-c1ccc(Cl)cc1 [compound 1511]	1 (Class 1: The value of percent of control at 10^−7 M was less than 40% or the value of IC50 was less than 50 nM.)
CN(C)c1nc(N[C@H]2CC[C@@H](CNCCCCc3ccc([N+](=O)[O-])cc3)CC2)nc2c1CCCC2 [compound 1512]	3 (Class 3 The value of percent of control at 10^−7 M was more than 60% or the value of IC50 was more than 200 nM.)
CN(C)c1ccnc(N[C@H]2CC[C@@H](NCCc3ccc(Br)cc3)CC2)n1 [compound 1513]	3 (Class 3 The value of percent of control at 10^−7 M was more than 60% or the value of IC50 was more than 200 nM.)
